From ChEMBL document CHEMBL4402541, “β-Lactamase Inhibitors To Restore the Efficacy of Antibiotics against Superbugs” (J Med Chem, 2020) come the findings set out here.

The test system of assay [1] is Pseudomonas aeruginosa. Kind of assay: Antibacterial activity against Pseudomonas aeruginosa haboring KPC-2 assessed as reduction in microbial growth by CLSI based broth microdilution method. The format is functional. In general terms: Dilution methods test growth across graded concentrations, often in twofold steps.
Assay [2] deals with Pseudomonas aeruginosa. In words: Antibacterial activity against Pseudomonas aeruginosa haboring AmpC assessed as reduction in microbial growth by CLSI based broth microdilution method. The format is functional.
The test system of assay [3] is Pseudomonas aeruginosa. Kind of assay: Antibacterial activity against Pseudomonas aeruginosa haboring OXA-24/40 assessed as reduction in microbial growth by CLSI based broth microdilution method. The format is functional.
Assay [4] relates to Pseudomonas aeruginosa. Kind of assay: Inhibition of Pseudomonas aeruginosa AmpC assessed as potentiation of piperacillin-induced antibacterial activity at 4 ug/ml by CLSI based broth microdilution method (reference value: > […] ug/ml).
Assay [5] relates to Pseudomonas aeruginosa. Kind of assay: Inhibition of Pseudomonas aeruginosa KPC-2 assessed as potentiation of piperacillin-induced antibacterial activity at 4 ug/ml by CLSI based broth microdilution method (reference value: > […] ug/ml).
For assay [6], the system named is Pseudomonas aeruginosa. Kind of assay: Inhibition of Pseudomonas aeruginosa OXA-24/40 assessed as potentiation of piperacillin-induced antibacterial activity at 4 ug/ml by CLSI based broth microdilution method (reference value: > […] ug/ml).
A short description of assay [7]: Inhibition of NDM1 (unknown origin) using nitrocefin as substrate incubated for 10 mins by UV spectra analysis. Also noted: species or system Bacteria.
Assay [8] has as its system Klebsiella pneumoniae. Kind of assay: Antibacterial activity against Klebsiella pneumoniae by CLSI based microdilution method.
Assay [9] deals with Escherichia coli. Kind of assay: Antibacterial activity against Escherichia coli by CLSI based microdilution method.
For assay [10], the system named is Klebsiella pneumoniae. Kind of assay: Potentiation of cefepime-induced antibacterial activity against Klebsiella pneumoniae at 8 ug/ml by CLSI based microdilution method. The format is functional.
The test system of assay [11] is Escherichia coli. In words: Potentiation of cefepime-induced antibacterial activity against Escherichia coli at 8 ug/ml by CLSI based microdilution method. The format is functional.
For assay [12], the system named is Beta-lactamase (Acinetobacter baumannii), Q8RLA6 [Y112A,M223A]. Kind of assay: Inhibition of Acinetobacter baumannii OXA-24 Y112A/M223A mutant by spectrophotometric method relative to control. Conditions: concentration not given here.
The test system of assay [13] is Acinetobacter baumannii. Kind of assay: Inhibition of Acinetobacter baumannii OXA-24 by spectrophotometry relative to control. Particulars: concentration not given here.
Assay [14] deals with Acinetobacter baumannii. In words: Antibacterial activity against Acinetobacter baumannii Ab1 clinical isolate harboring OXA-23 infected in BALB/c mouse pneumonia model assessed as reduction in bacterial burden by measuring bacterial growth at 50 mg,kg, im after 22 hrs co-treatment with imipenem. The format is functional.
For assay [15], the system named is Beta-lactamase (Acinetobacter baumannii), Q8RLA6 [Y112A]. Kind of assay: Inhibition of Acinetobacter baumannii OXA-24 Y112A mutant by spectrophotometric method relative to control. Conditions: concentration not given here.
Assay [16] in a line: Inhibition of Acinetobacter baumannii OXA-24 by spectrophotometric method.
Assay [17] deals with Acinetobacter baumannii. In words: Antibacterial activity against Acinetobacter baumannii JC12/04 clinical isolate harboring OXA-24/40 infected in BALB/c mouse pneumonia model assessed as reduction in bacterial burden by measuring bacterial growth at 50 mg,kg, im after 22 hrs co-treatment with imipenem. The format is functional.
Assay [18] concerns Acinetobacter baumannii. In words: Inhibition of OXA-24/40 in Acinetobacter baumannii assessed as potentiation of meropenem-induced antibacterial activity by CLSI based broth microdilution method.
The subject of assay [19] is Acinetobacter baumannii. Kind of assay: Antibacterial activity against Acinetobacter baumannii ATCC 17978 harboring OXA-23 infected in BALB/c mouse pneumonia model assessed as reduction in bacterial burden by measuring bacterial growth at 50 mg,kg, im after 22 hrs co-treatment with imipenem. The format is functional.
Assay [20] concerns Acinetobacter baumannii. In words: Antibacterial activity against Acinetobacter baumannii ATCC 17978 harboring OXA-24/40 infected in BALB/c mouse pneumonia model assessed as reduction in bacterial burden by measuring bacterial growth at 50 mg,kg, im after 22 hrs co-treatment with imipenem. The format is functional.
Assay [21] deals with Acinetobacter baumannii. In words: Inhibition of OXA-24/40 in Acinetobacter baumannii assessed as potentiation of imipenem-induced antibacterial activity by CLSI based broth microdilution method.
For another assay, the system named is Staphylococcus. Kind of assay: Antibacterial activity against methicillin-sensitive Staphylococcus. The format is functional.
In assay [22] the test system is Enterobacteriaceae. Kind of assay: Inhibition of Beta-lactamase KPC in Enterobacteriaceae assessed as potentiation of imipenem-induced antibacterial activity by CLSI based agar dilution method. (In general: Agar dilution tests growth on a series of plates holding different concentrations.)
Assay [23] relates to Enterobacteriaceae. In words: Inhibition of OXA-181 in Enterobacteriaceae assessed as potentiation of imipenem-induced antibacterial activity by CLSI based agar dilution method.
Assay [24] deals with Enterobacteriaceae. In words: Inhibition of Beta-lactamase KPC in Enterobacteriaceae assessed as potentiation of meropenem-induced antibacterial activity by CLSI based agar dilution method.
The subject of assay [25] is Enterobacteriaceae. In words: Inhibition of Beta-lactamase OXA-48 in Enterobacteriaceae assessed as potentiation of meropenem-induced antibacterial activity by CLSI based agar dilution method.
The test system of assay [26] is Enterobacteriaceae. In words: Inhibition of OXA-181 in Enterobacteriaceae assessed as potentiation of meropenem-induced antibacterial activity by CLSI based agar dilution method.
Assay [27] has as its system Enterobacteriaceae. Kind of assay: Inhibition of Beta-lactamase OXA-48 in Enterobacteriaceae assessed as potentiation of imipenem-induced antibacterial activity by CLSI based agar dilution method.
Assay [28] is described as follows: Inhibition of AmpC beta-lactamase (unknown origin) by Cheng-Prusoff equation analysis. On the set-up: species or system Bacteria.
The subject of assay [29] is Acinetobacter baumannii. Kind of assay: Inhibition of Acinetobacter baumannii PBP2 assessed as ratio of Kinact to Ki by SDS-PAGE based fluorescence assay.
Assay [30] has as its system Escherichia coli. Kind of assay: Inhibition of Escherichia coli PBP2 assessed as ratio of Kinact to Ki by SDS-PAGE based fluorescence assay.
The next assay deals with Beta-lactamase TEM (Escherichia coli, UniProt P62593). In words: Inhibition of Escherichia coli TEM-1 beta-lactamase.
Assay [31] deals with Escherichia coli. Kind of assay: Antibacterial activity against Escherichia coli harboring beta-lactamase infected in mouse relative to control. The format is functional.

Converted amounts (≈) assume the structure as drawn.

Beta-lactamase (Acinetobacter baumannii), Q8RLA6 [Y112A], sequence (Q8RLA6 whole entry Y112A): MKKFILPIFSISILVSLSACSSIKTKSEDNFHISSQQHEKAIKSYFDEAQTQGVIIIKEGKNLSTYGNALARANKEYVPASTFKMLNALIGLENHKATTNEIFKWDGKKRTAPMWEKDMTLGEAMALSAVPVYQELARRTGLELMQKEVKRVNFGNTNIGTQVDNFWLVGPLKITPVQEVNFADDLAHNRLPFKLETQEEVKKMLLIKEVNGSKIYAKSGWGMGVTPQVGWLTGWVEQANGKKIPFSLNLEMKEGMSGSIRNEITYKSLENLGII
Beta-lactamase (Acinetobacter baumannii), Q8RLA6 [Y112A,M223A], sequence (Q8RLA6 whole entry Y112A/M223A): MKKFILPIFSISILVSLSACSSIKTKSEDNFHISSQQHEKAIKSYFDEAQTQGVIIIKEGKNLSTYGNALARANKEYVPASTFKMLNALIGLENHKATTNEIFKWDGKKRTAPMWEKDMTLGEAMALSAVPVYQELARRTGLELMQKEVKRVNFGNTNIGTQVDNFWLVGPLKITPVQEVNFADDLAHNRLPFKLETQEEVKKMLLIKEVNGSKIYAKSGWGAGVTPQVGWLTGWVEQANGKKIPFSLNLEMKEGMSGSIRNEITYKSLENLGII
Beta-lactamase TEM, sequence (P62593 whole entry): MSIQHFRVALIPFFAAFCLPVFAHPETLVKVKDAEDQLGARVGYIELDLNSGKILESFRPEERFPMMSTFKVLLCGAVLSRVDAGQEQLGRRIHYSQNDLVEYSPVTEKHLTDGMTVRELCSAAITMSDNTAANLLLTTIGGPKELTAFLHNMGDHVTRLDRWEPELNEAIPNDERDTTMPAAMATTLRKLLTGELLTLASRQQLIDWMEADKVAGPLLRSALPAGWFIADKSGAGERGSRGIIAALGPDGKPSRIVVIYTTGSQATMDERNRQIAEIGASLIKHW

Take `CCN1CCN(C(=O)N[C@@H](C(=O)N[C@@H]2C(=O)N3[C@@H]2SC(C)(C)[C@@H]3C(=O)O)c2ccccc2)C(=O)C1=O` [PIPERACILLIN]: the MIC in the assay with Pseudomonas aeruginosa [1], in the assay with Pseudomonas aeruginosa [2] and with Pseudomonas aeruginosa [3] was > 64 µg/mL each time.
`CC1=C[C@@H](C(N)=O)N2C[C@@H]1N(OS(=O)(=O)O)C2=O`: the MIC in the assay with Pseudomonas aeruginosa [4] worked out at 8 µg/mL; in the assay with Pseudomonas aeruginosa [5], 4 µg/mL; in the assay on Pseudomonas aeruginosa [6], 16 µg/mL.
Broadly, the IC50 is the concentration that gives 50% inhibition. High values mean a need for much substance, low ones inhibition by little substance. For the compound `N[C@H](CN[C@H](CN[C@@H](CC(=O)O)C(=O)O)C(=O)O)C(=O)O`, half-maximal inhibition in assay [7] (IC50) required 10.2 µM.
Consider `C=C(C)C1=C[C@@H](COC)N2C[C@@H]1N(OS(=O)(=O)O)C2=O`, for which the MIC in the assay on Pseudomonas aeruginosa [4], in the assay with Pseudomonas aeruginosa [5] and in the assay with Pseudomonas aeruginosa [6] was > 64 µg/mL throughout.
As a reminder, the MIC90 is the lowest concentration that inhibits either 90% of growth or 90% of the strains tested, depending on the study. Turning to `CO/N=C(\C(=O)N[C@@H]1C(=O)N2C(C(=O)[O-])=C(C[N+]3(C)CCCC3)CS[C@H]12)c1csc(N)n1` [CEFEPIME], the MIC90 with Klebsiella pneumoniae [8] was 16 µg/mL (≈ 33.3 µM); against Escherichia coli [9], > 64 µg/mL.
Turning to `Cn1cc[n+](C[C@@]2(C)[C@H](C(=O)[O-])N3C(=O)C[C@H]3S2(=O)=O)n1` [ENMETAZOBACTAM], the MIC90 worked out at 1 µg/mL with Klebsiella pneumoniae [10] and 0.5 µg/mL in the assay on Escherichia coli [11].
As a reminder, the inhibition is the share of the control response that was lost under treatment. Lower therefore signals a response near the control. In general, Ki refers to a dissociation constant, usually derived from enzyme kinetics or from competition with a known ligand. Read a low Ki as a stronger hold on the target. Regarding `C[C@]1(COC(=O)Cc2ccc(O)c(O)c2)[C@H](C(=O)O)N2C(=O)/C(=C/c3ccccn3)[C@H]2S1(=O)=O`, the inhibition (in assay [12]; in the assay with Acinetobacter baumannii [13]; in [15]) was 100% each time. Also, the Activity with Acinetobacter baumannii [14] is recorded as 1.7 log10CFU/g; in the assay with Acinetobacter baumannii [17], 4.5 log10CFU/g; with Acinetobacter baumannii [19] it was 4 log10CFU/g; with Acinetobacter baumannii [20], 2.5 log10CFU/g. Further, in assay [16], the Ki was 0.7 µM. For the same compound, the MIC with Acinetobacter baumannii [18] and with Acinetobacter baumannii [21] was 1 µg/mL in each case.
Compound `Cn1cc(/C=C2/C(=O)N3C(C(=O)O)=CS[C@H]23)nn1` displayed an MIC against Staphylococcus of 1 µg/mL (≈ 3.78 µM).
As to `N#C[C@@H]1CC[C@@H]2CN1C(=O)N2OS(=O)(=O)O`, the MIC with Enterobacteriaceae [22], in the assay with Enterobacteriaceae [23], with Enterobacteriaceae [24], in the assay with Enterobacteriaceae [25], with Enterobacteriaceae [26] and in the assay on Enterobacteriaceae [27] was < 2 µg/mL throughout.
`O=C(NCB(O)O)S(=O)(=O)c1cc(Cl)cc(-c2nnn[nH]2)c1` came in with a Ki in assay [28] of 0.2 nM.
For `NC(=O)[C@@H]1CC[C@@H]2CN1C(=O)N2OS(=O)(=O)O`, the MIC is 8 µg/mL in the assay on Pseudomonas aeruginosa [4], 8 µg/mL in the assay with Pseudomonas aeruginosa [5] and 64 µg/mL in the assay with Pseudomonas aeruginosa [6].
In the case of `N[C@@H](CN[C@@H](CN[C@@H](CC(=O)O)C(=O)O)C(=O)O)C(=O)O`, in assay [7], the IC50 is 9.3 µM.
On to `CC1=C[C@@H]2CN(C(=O)N2OS(=O)(=O)O)[C@@H]1C(N)=O`, for which the values for the MIC in the assay with Pseudomonas aeruginosa [4], in the assay on Pseudomonas aeruginosa [5] and in the assay with Pseudomonas aeruginosa [6] were 2 µg/mL, 4 µg/mL and 8 µg/mL, respectively. Further, the results for the Ratio in the assay with Acinetobacter baumannii [29] and with Escherichia coli [30] were 1 ×10³ /M/s and 1 ×10⁴ /M/s, respectively.
In the case of `C[C@]1(Cn2ccnn2)[C@H](C(=O)O)N2C(=O)C[C@H]2S1(=O)=O`, the MIC in the assay with Acinetobacter baumannii [18] and in the assay on Acinetobacter baumannii [21] was 16 µg/mL in each case.
As to `N[C@H](CN[C@@H](CN[C@@H](CC(=O)O)C(=O)O)C(=O)O)C(=O)O`, half-maximal inhibition in assay [7] (IC50) required 11.9 µM.
In turn, `O=C(NCB(O)O)S(=O)(=O)c1cc(-c2nnn[nH]2)cc(C(F)(F)F)c1` gave a Ki in assay [28] of 0.05 nM.
On to `CC(=O)N[C@@H](Cc1cccc(C(=O)O)c1)B(O)O`, for which, on Beta-lactamase TEM, the Ki is 0.11 µM.
Consider `CC1=C[C@@H](CO)N2C[C@@H]1N(OS(=O)(=O)O)C2=O`, for which the MIC in the assay with Pseudomonas aeruginosa [4] was 32 µg/mL; in the assay on Pseudomonas aeruginosa [5] it was 8 µg/mL; in the assay with Pseudomonas aeruginosa [6] it was 64 µg/mL.
Take `O=C(NCB(O)O)S(=O)(=O)c1ccnc(-c2nnn[nH]2)c1`: the Activity in the assay on Escherichia coli [31] was determined as 65%. Further, the Ki in assay [28] turned out to be 0.8 nM.
`N[C@@H](CN[C@@H](CN[C@H](CC(=O)O)C(=O)O)C(=O)O)C(=O)O` displayed an IC50 in assay [7] of 11.6 µM. This lies in the double-digit micromolar range.
On to `CC1=C[C@@H](C#N)N2C[C@@H]1N(OS(=O)(=O)O)C2=O`, for which the MIC in the assay with Pseudomonas aeruginosa [4] is > 64 µg/mL; in the assay on Pseudomonas aeruginosa [5], 64 µg/mL; in the assay on Pseudomonas aeruginosa [6] it was 8 µg/mL.
For the compound `N[C@@H](CN[C@H](CN[C@@H](CC(=O)O)C(=O)O)C(=O)O)C(=O)O`, in assay [7], the IC50 amounted to 12.5 µM.
